According to patent US6384261B1, “Phosphoramidates, phosphinic amides and related compounds and the use thereof to modulate the activity of endothelin” (Texas Biotechnology Corporation, priority 1996, dated 2002):
Like-named read-outs stand apart in the source and are kept apart here.

How the values were obtained:
human ETB receptor = target: T1, human ETB receptor (Homo sapiens, UniProt P24530); assay: Binding Test #2: inhibition of 125I-endothelin-1 binding to ETB receptors (transfected COS7 cell membranes)
T1 construct: expressed in transfected cells; host or cells: COS7 cells, membrane preparation
T1 sequence (P24530 27-442): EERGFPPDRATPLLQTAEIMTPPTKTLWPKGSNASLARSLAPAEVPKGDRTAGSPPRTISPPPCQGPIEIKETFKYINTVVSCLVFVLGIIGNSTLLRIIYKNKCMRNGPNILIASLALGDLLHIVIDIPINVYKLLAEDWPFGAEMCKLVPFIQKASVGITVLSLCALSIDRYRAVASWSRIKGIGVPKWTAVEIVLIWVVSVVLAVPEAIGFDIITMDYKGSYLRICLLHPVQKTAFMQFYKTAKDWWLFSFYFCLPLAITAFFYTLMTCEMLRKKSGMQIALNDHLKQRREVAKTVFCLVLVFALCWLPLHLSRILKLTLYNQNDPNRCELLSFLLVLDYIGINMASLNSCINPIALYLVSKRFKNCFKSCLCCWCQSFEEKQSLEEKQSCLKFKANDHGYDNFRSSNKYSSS
From the text: (§1) Compounds that are potential endothelin antagonists are identified by testing their ability to compete with ^125I-labeled ET-1 for binding to human ETA receptors or ETB receptors present on isolated cell membranes. The effectiveness of the test compound as an antagonist or agonist of the biological tissue response of endothelin can also be assessed by measuring the effect on endothelin induced contraction of isolated rat thoracic aortic rings. The ability of the compounds to act as antagonists or agonists for ETB receptors can be assessed by testing the ability of the compounds to inhibit endothelin-1 induced prostacyclin release from cultured bovine aortic endothelial cells.
COS7 cells were transfected with DNA encoding the ETB receptor, The resulting cells, which express the human ETB receptor, were grown to confluence in T-150 flasks. Membrane was prepared as described above. The binding assay was performed as described above using the membrane preparation diluted with binding buffer to a concentration of 1 μg/50 μl.
Briefly, the COS7 cells, described above, that had been transfected with DNA encoding the ETB receptor and express the human ETB receptor on their surfaces were grown to confluence in T-175 flasks. Cells from multiple flasks were collected by scraping, pooled and centrifuged for 10 min at 190×g. The cells were resuspended in phosphate buffered saline (PBS) containing 10 mM EDTA using a Tenbroeck homogenizer. The suspension was centrifuged at 4° C. 57,800×g for 15 min, the pellet was resuspended in 5 ml of buffer A (5 mM HEPES buffer, pH 7.4 containing aprotinin (100 KIU/ml)) and then frozen and thawed once. Five ml of Buffer B (5 mM HEPES Buffer, pH 7.4 containing 10 mM MnCl2 and 0.001% deoxyribonuclease Type 1) was added, the suspension mixed by inversion and then incubated at 37° C. for 30 minutes. The mixture was centrifuged at 57,800×g as described above, the pellet washed twice with buffer A and then resuspended in buffer C (30 mM HEPES buffer, pH 7.4 containing aprotinin (100 KIU/ml) to give a final protein concentration of 2 mg/ml.
The binding assay was performed as described above using the membrane preparation diluted to give 1 μg/50 μl of binding buffer.

human ETA receptors = target: T2, human ETA receptors (Homo sapiens, UniProt P25101); assay: Binding Test #1: inhibition of 125I-endothelin-1 binding to ETA receptors (TE 671 cell membranes)
T2 construct: endogenous in cells; host or cells: TE 671 cells (ATCC HTB 139), membrane preparation
T2 sequence (P25101 21-427): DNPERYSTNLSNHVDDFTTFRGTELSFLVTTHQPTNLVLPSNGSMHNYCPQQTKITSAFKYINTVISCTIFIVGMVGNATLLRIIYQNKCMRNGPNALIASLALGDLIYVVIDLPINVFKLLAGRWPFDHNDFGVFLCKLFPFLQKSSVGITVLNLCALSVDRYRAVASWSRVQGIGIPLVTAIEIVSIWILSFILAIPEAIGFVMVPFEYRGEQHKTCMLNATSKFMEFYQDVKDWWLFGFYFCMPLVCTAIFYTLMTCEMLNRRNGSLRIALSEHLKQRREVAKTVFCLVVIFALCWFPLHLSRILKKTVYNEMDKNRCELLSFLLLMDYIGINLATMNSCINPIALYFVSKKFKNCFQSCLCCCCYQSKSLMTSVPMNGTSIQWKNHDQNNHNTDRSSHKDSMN
From the text: as §1
TE 671 cells (ATCC Accession No. HTB 139) express ETA receptors. These cells were grown to confluence in T-175 flasks. Cells from multiple flasks were collected by scraping, pooled and centrifuged for 10 min at 190×g. The cells were resuspended in phosphate buffered saline (PBS) containing 10 mM EDTA using a Tenbroeck homogenizer. The suspension was centrifuged at 4° C. at 57,800×g for 15 min, the pellet was resuspended in 5 ml of buffer A (5 mM HEPES buffer, pH 7.4 containing aprotinin (100 KIU/ml)) and then frozen and thawed once. 5 ml of Buffer B (5 mM HEPES Buffer, pH 7.4 containing 10 mM MnCl2 and 0.001% deoxyribonuclease Type 1) was added, the suspension mixed by inversion and then incubated at 37° C. for 30 minutes. The mixture was centrifuged at 57,800×g as described above, the pellet washed twice with buffer A and then resuspended in buffer C (30 mM HEPES buffer, pH 7.4 containing aprotinin (100 KIU/ml) to give a final protein concentration of 2 mg/ml and stored at −70° C. until use.
The membrane suspension was diluted with binding buffer (30 mM HEPES buffer, pH 7.4 containing 150 mM NaCl, 5 mM MgCl2, 0.5% Bacitracin) to a concentration of 8 μg/50 μl. ^125I-endothelin-1 (3,000 cpm, […]) was added to 50 μL of either: (A) endothelin-1 (for non specific binding) to give a final concentration 80 nM); (B) binding buffer for total binding); or (C) a test compound (final concentration 1 nM to 100 μM). The membrane suspension (50 μL), containing up to 8 μg of membrane protein, was added to each of (A), (B), or (C). Mixtures were shaken, and incubated at 4° C. for 16-18 hours, and then centrifuged at 4° C. for 25 min at 2,500×g. Alternatively, the incubation can be conducted at other temperatures, such as 24° C. When incubated at 24° C., the IC50 concentrations are 2- to 10-fold higher than when the incubation is conducted at 4° C.
The supernatant, containing unbound radioactivity, was decanted and the pellet counted on a Genesys multiwell gamma counter. The degree of inhibition of binding (D) was calculated according to the following equation: [formula]
Each test was generally performed in triplicate.

ETA and ETB receptors = assay: Summary statements on IC50 for ETA and ETB receptors / endothelin antagonist activity; type: binding, human; settings: ETA versus ETB
From the text: as §1
The membrane suspension was diluted with binding buffer (30 mM HEPES buffer, pH 7.4 containing 150 mM NaCl, 5 mM MgCl2, 0.5% Bacitracin) to a concentration of 8 μg/50 μl. ^125I-endothelin-1 (3,000 cpm, […]) was added to 50 μL of either: (A) endothelin-1 (for non specific binding) to give a final concentration 80 nM); (B) binding buffer for total binding); or (C) a test compound (final concentration 1 nM to 100 μM). The membrane suspension (50 μL), containing up to 8 μg of membrane protein, was added to each of (A), (B), or (C). […]
The IC50 for each of the compounds of the preceding Examples for ETA and ETB receptors has been measured. […]

ETA receptor = settings: read-out: IC50, inhibition of 125I-labelled endothelin-1 binding, cited from earlier work
ETB receptors = settings: concentrations up to 100 μM; cited from earlier work
isolated vascular strips = settings: read-out: EC50, contractile agent; cited from earlier work
[1] = incubation at 4° C., results generally from 1, 2, or 3 experiments, read-out: ETB (μM) IC50
[2] = incubation at 4° C., results generally from 1, 2, or 3 experiments, read-out: ETA (μM) IC50

Compound: Cc1noc(NP(=O)(c2ccccc2)c2ccccc2)c1C [N-(3,4-dimethyl-5-isoxazolyl)diphenylphosphinic Amide]
- IC50 (human ETB receptor; [1]): > 100 µM
- IC50 (human ETA receptors; [2]): 7.1 µM

Compound: Cc1noc(NP(=O)(Oc2ccccc2)Oc2ccccc2)c1C [N-(3,4-dimethyl-5-isoxazolyl)diphenylphosphoramidate]
- IC50 (human ETB receptor): > 100 µM
- IC50 (human ETA receptors): 2.5 µM

Compound: CCOP(=O)(Nc1onc(C)c1Br)OCC [N-(4-bromo-3-methyl-5-isoxazolyl)diethylphosphoramidate]
- IC50 (human ETB receptor): > 100 µM
- IC50 (human ETA receptors): 20 µM

Compound: Cc1noc(NP(=O)(c2ccccc2)c2ccccc2)c1Br [N-(4-bromo-3-methyl-5-isoxazolyl)diphenylphosphinic Amide]
- IC50 (human ETB receptor; [1]): 85 µM
- IC50 (human ETA receptors; [2]): 0.84 µM

Compound: Cc1noc(NP(=O)(Oc2ccccc2)Oc2ccccc2)c1Br [N-(4-bromo-3-methyl-5-isoxazolyl)diphenylphosphoramidate]
- IC50 for ETA receptors substantially less than for ETB receptors (selectivity) (ETA and ETB receptors): 10 to 100 fold
- IC50 (human ETB receptor): 77 µM
- IC50 (human ETA receptors): 0.58 µM

Compound: cyclo(D-Glu-L-Ala-allo-D-lle-L-Leu-D-Trp) [BE-18257B]
- IC50 (ETA receptor; aortic smooth muscle): 1.4 µM
- IC50 (ETA receptor; cultured aortic smooth muscle cells): 0.5 µM
- IC50 (ETA receptor; ventricle membranes): 0.8 µM
- inhibition of binding to receptors in tissues in which ETB receptors predominate (ETB receptors): fails to inhibit binding

Compound: endothelin-1: potent twenty-one amino acid peptide vasoconstrictor
- EC50 (isolated vascular strips): 0.0004 µM
